Assay results published in US9789098B2, “Nootropic compositions for improving memory performance” (Pharnext, priority 2012, dated 2017).

Experiments:
[1] = clinical; settings: human, in vivo, po
Excerpt: Pharmacodynamics of baclofen and acamprosate have been established in the frame of clinical trial.

[2] = tested on: 11 month-old C57B1/6 mice; assay: % of alternation in T-maze test, healthy mice (short term memory); format: in vivo; settings: administered once 2 hours before the test, very low doses (mix doses 4 and 5), FIG. 2
Protocol: 11 month-old C57B1/6 mice are used. They are group-housed (5-10 mice per cage) and maintained in a room with controlled temperature (21-22° C.) and a reversed light-dark cycle (12 h/12 h; lights on: 17:30-05:30; lights off: 05:30-17:30) with food and water available ad libitum.
Drugs are solubilized in water and freshly prepared just before each gavage or ip administration and are kept under agitation.
Doses of drugs of the invention are exemplified in table 4. Concerning acamprosate calcium, the indicated doses refer to the doses of the salt of molecule.
Between day 0 and day 7, drug combinations or the vehicle solution were administered twice daily (at 8:00 am and 6:00 pm). One animal group receives donepezil (reference compound 0.3 mg/kg) at 8:00 am and the vehicle at 6:00 pm.
On day 8, all animals were tested for the % of alternation performance in the T-maze test, 2 hours after the administration of drugs combination or the vehicle solution.
The eve of the test, drug combinations or the vehicle solution were administered at 8:00 am and 6:00 pm. […]
The effect of the administration of combinations on short term memory was assessed for different durations of treatment (7 days, 1 day, 2 hours before the test). […]
The percent spontaneous alternation was calculated as the number of spontaneous alternations divided by the number of free-choice trials. […]

In the case of `NCC(CC(=O)O)c1ccc(Cl)cc1` (racemic) [baclofen, Baclofen], the Tmax [1] is reported as 1.5 h and the “improvement of learning and working memory performances vs vehicle” value [2] is reported as “no significant improvement”.
In the case of `CC(=O)NCCCS(=O)(=O)O` [acamprosate, Acamprosate], the Tmax [1] is reported as 1.5 to 2 h and the “improvement of learning and working memory performances vs vehicle” value [2] is reported as “no significant improvement”.
